Laboratory results taken from ChEMBL document CHEMBL3525952, “A Baeyer-Villiger oxidation specifically catalyzed by human flavin-containing monooxygenase 5” (Drug Metab Dispos, 2011).

Columns and labels:
[1] = target: T1, Flavin-containing monooxygenase 3 (Homo sapiens, UniProt P31513); experiment: Drug metabolism assessed as human recombinant FMO3-mediated ER-879123 formation in presence of dog liver cytosolic fractions and NAD+ at 50 uM after 60 mins by LC-MS/MS method; type: ADME, tissue-based; conditions: recombinant enzyme, 1 h
T1 sequence (P31513 whole entry): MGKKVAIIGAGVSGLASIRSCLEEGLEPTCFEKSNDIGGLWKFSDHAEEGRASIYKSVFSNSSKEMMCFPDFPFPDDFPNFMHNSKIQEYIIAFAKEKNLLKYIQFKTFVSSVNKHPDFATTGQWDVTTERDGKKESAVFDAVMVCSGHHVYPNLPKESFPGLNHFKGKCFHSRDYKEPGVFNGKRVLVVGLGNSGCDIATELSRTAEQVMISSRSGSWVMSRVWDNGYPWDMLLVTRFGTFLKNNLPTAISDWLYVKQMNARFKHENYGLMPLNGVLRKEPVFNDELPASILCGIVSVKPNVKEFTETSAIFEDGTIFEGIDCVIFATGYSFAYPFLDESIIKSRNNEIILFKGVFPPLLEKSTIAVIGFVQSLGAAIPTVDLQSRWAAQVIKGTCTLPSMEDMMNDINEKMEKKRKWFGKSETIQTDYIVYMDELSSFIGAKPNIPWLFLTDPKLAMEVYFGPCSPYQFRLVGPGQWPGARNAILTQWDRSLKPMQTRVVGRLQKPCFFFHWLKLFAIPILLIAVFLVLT

[2] = Drug metabolism in 50 degC treated human liver S9 fraction assessed as ER-879123 formation at 50 uM after 60 mins in absence of NAD+ by LC-MS/MS method; type: ADME, tissue-based; conditions: s9, 1 h
[3] = Drug metabolism in human liver S9 fraction assessed as ER-879123 formation at 50 uM after 60 mins in presence of NADP+ by LC-MS/MS method; type: ADME, subcellular; conditions: s9, 1 h
Liver microsome [4] = experiment: Drug metabolism in dog liver microsomes assessed as ER-879123 formation at 50 uM after 60 mins in presence of NADPH by LC-MS/MS method; type: ADME, Canis lupus familiaris; conditions: 1 h
[5] = target: T2, Flavin-containing monooxygenase 5 (Homo sapiens, UniProt P49326); experiment: Drug metabolism assessed as human recombinant FMO5-mediated ER-879123 formation in presence of human liver cytosolic fractions at 50 uM after 60 mins by LC-MS/MS method; type: ADME, tissue-based; conditions: recombinant enzyme, 1 h
T2 sequence (P49326 whole entry): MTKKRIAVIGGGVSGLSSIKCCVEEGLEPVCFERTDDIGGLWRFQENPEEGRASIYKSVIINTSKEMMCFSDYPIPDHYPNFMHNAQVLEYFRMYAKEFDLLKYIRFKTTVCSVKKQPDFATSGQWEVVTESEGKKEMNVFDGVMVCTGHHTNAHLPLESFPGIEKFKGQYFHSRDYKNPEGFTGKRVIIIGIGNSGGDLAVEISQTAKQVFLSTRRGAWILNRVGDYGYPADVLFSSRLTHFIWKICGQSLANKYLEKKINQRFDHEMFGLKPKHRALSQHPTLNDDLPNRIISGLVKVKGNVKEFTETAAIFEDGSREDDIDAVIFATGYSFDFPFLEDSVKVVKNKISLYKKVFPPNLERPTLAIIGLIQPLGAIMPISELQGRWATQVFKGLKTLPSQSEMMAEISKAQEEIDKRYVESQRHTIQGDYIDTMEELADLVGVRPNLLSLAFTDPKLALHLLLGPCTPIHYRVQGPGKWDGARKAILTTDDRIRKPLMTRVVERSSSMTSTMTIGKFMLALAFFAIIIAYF

[6] = Drug metabolism in human liver S9 fraction assessed as ER-879123 formation at 50 uM after 60 mins in presence of NAD+ and carboxylesterase inhibitor BNPP by LC-MS/MS method; type: ADME, subcellular; conditions: 1 h
[7] = Drug metabolism in 50 degC treated dog liver S9 fraction assessed as ER-879123 formation at 50 uM after 60 mins in absence of NAD+ by LC-MS/MS method; type: ADME, tissue-based, Canis lupus familiaris; conditions: s9, 1 h
[8] = target: T2, Flavin-containing monooxygenase 5; experiment: Drug metabolism assessed as human recombinant FMO5-mediated ER-879123 formation in absence of rat liver cytosolic fractions at 50 uM after 60 mins by LC-MS/MS method; type: ADME, tissue-based; conditions: recombinant enzyme, 1 h
Liver microsome [9] = experiment: Drug metabolism in rat liver microsomes assessed as ER-879123 formation at 50 uM after 60 mins in presence of NADPH by LC-MS/MS method; type: ADME; conditions: 1 h
[10] = Drug metabolism in human liver S9 fraction assessed as ER-879123 formation at 50 uM after 60 mins in presence of NAD+ and FMO1 and FMO3 substrate/inhibitor methimazole by LC-MS/MS method; type: ADME, subcellular; conditions: s9, 1 h
[11] = target: T2, Flavin-containing monooxygenase 5; experiment: Drug metabolism assessed as human recombinant FMO5-mediated ER-879123 formation in presence of rat liver cytosolic fractions at 50 uM after 60 mins by LC-MS/MS method; type: ADME, tissue-based; conditions: recombinant enzyme, 1 h
[12] = target: T3, Flavin-containing monooxygenase 1 (Homo sapiens, UniProt Q01740); experiment: Drug metabolism assessed as human recombinant FMO1-mediated ER-879123 formation in presence of dog liver cytosolic fractions and NAD+ at 50 uM after 60 mins by LC-MS/MS method; type: ADME, tissue-based; conditions: recombinant enzyme, 1 h
T3 sequence (Q01740 whole entry): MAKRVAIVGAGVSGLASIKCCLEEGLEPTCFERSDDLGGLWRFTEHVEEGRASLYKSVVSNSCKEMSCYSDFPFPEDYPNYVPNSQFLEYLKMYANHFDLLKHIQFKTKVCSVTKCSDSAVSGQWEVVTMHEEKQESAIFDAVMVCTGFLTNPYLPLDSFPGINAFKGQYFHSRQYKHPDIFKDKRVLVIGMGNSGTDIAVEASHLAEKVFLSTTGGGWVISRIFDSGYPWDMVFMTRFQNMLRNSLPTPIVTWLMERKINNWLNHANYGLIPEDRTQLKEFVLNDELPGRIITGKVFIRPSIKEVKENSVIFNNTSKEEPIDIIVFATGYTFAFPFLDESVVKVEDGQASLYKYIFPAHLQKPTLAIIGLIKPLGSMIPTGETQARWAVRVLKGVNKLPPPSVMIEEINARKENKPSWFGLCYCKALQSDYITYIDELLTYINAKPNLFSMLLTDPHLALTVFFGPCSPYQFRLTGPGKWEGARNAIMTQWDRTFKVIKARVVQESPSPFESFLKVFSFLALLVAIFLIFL

[13] = Drug metabolism in dog liver S9 fraction assessed as ER-879123 formation at 50 uM after 60 mins in presence of NAD+ and carboxylesterase inhibitor BNPP by LC-MS/MS method; type: ADME, subcellular, Canis lupus familiaris; conditions: 1 h
[14] = Drug metabolism in human hepatocytes assessed as ER-879123 formation at 50 uM after 120 mins in presence of NADPH by LC-MS/MS method; type: ADME, cell-based, Hepatocyte; conditions: 2 h
[15] = Drug metabolism in dog liver S9 fraction assessed as ER-879123 formation at 50 uM after 60 mins in presence of NAD+ and FMO1 and FMO3 substrate/inhibitor methimazole by LC-MS/MS method; type: ADME, subcellular, Canis lupus familiaris; conditions: s9, 1 h
[16] = Drug metabolism in human liver S9 fraction assessed as ER-879123 formation at 50 uM after 60 mins in presence of NAD+ and alcohol dehydrogenase inhibitor 4-methylpyrazole by LC-MS/MS method; type: ADME, subcellular; conditions: s9, 1 h
[17] = target: T2, Flavin-containing monooxygenase 5; experiment: Drug metabolism assessed as human recombinant FMO5-mediated ER-879123 formation in absence of human liver cytosolic fractions at 50 uM after 60 mins by LC-MS/MS method; type: ADME, tissue-based; conditions: recombinant enzyme, 1 h
[18] = Drug metabolism in human liver S9 fraction assessed as ER-879123 formation at 50 uM after 60 mins in presence of NAD+ by LC-MS/MS method; type: ADME, subcellular; conditions: s9, 1 h
[19] = Drug metabolism in dog hepatocytes assessed as ER-879123 formation at 50 uM after 120 mins in presence of NADPH by LC-MS/MS method; type: ADME, cell-based, Canis lupus familiaris, Hepatocyte; conditions: 2 h
[20] = Drug metabolism in dog liver S9 fraction assessed as ER-879123 formation at 50 uM after 60 mins in presence of NAD+ by LC-MS/MS method; type: ADME, subcellular, Canis lupus familiaris; conditions: s9, 1 h
[21] = Drug metabolism in dog liver S9 fraction assessed as ER-879123 formation at 50 uM after 60 mins in presence of NAD+ and alcohol dehydrogenase inhibitor 4-methylpyrazole by LC-MS/MS method; type: ADME, subcellular, Canis lupus familiaris; conditions: s9, 1 h
Liver microsome [22] = experiment: Drug metabolism in human liver microsomes assessed as ER-879123 formation at 50 uM after 60 mins in presence of NADPH by LC-MS/MS method; type: ADME; conditions: 1 h
[23] = Drug metabolism in dog liver S9 fraction assessed as ER-879123 formation at 50 uM after 60 mins in presence of NADP+ by LC-MS/MS method; type: ADME, subcellular, Canis lupus familiaris; conditions: s9, 1 h
[24] = Drug metabolism in rat hepatocytes assessed as ER-879123 formation at 50 uM after 120 mins in presence of NADPH by LC-MS/MS method; type: ADME, cell-based, Hepatocyte; conditions: 2 h
[25] = target: T2, Flavin-containing monooxygenase 5; experiment: Drug metabolism assessed as human recombinant FMO5-mediated ER-879123 formation in presence of dog liver cytosolic fractions at 50 uM after 60 mins by LC-MS/MS method; type: ADME, tissue-based; conditions: recombinant enzyme, 1 h
[26] = target: T2, Flavin-containing monooxygenase 5; experiment: Drug metabolism assessed as human recombinant FMO5-mediated ER-879123 formation in absence of dog liver cytosolic fractions at 50 uM after 60 mins by LC-MS/MS method; type: ADME, tissue-based; conditions: recombinant enzyme, 1 h

Measured: Drug metabolism

O=c1[nH]nc2c3c(cccc13)Oc1ccc(CN3CCC(O)CC3)cc1-2 [E-7016]
metabolite_detected: [3] | [5] | [10] | [11] | [14] | [15] | [18] | [19] | [20] | [23] | [24] | [25]
metabolite_not_detected: all other assays above
